Measurements: article PMC8151276, “An Integrated Approach toward NanoBRET Tracers for Analysis of GPCR Ligand Engagement” (Molecules, 2021)

Target: T1, NPSR1 (Homo sapiens, UniProt Q6W5P4)
T1 construct: purchased Promega (in-house HiBiT-GPCR construct library, NanoBRET)
T1 sequence (Q6W5P4 1-371): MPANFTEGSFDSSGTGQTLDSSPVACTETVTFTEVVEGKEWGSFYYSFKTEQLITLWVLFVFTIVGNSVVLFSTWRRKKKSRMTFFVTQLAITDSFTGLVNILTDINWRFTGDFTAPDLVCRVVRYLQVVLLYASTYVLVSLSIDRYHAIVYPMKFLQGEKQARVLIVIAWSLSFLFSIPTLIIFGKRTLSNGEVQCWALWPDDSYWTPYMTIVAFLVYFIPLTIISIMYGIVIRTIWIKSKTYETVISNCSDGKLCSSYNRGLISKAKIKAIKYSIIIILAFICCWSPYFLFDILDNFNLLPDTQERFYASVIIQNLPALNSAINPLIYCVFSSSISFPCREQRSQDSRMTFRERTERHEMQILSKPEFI
Assay: NanoBRET screen HiBiT-NPSR1 in HEK293
Type: binding
Protocol: Each tracer candidate was screened across the entire library of HiBiT-GPCR constructs using NanoBRET as the detection modality. As depicted in Figure 4A, the specificity of interactions was evaluated through decrease in BRET due to competitive displacement of a bound tracer by excess parental compound. Each tracer was analyzed for binding to each HiBiT-GPCR fusion in the absence and in the presence of competing parental compound. Briefly, HEK293 cells were transfected with HiBiT-GPCR constructs diluted into promoterless DNA to reduce expression and maximize translocation to the cell surface. Each tracer candidate was then screened at concentrations of 1 μM and 0.1 μM across cells expressing these fusions. Cells were treated for 1.5 h with tracer either alone or in the presence of 20 μM competing parental compound (i.e., control). BRET was measured upon addition of purified LgBiT and subsequent complementation with HiBiT genetically fused to a GPCR. The specificity of interactions was assessed through a decrease in BRET signal due to competitive displacement of the bound tracer. To further gauge the robustness of these interactions, the fold response over the control (i.e., BRETtracer/BRETcontrol) was calculated. We chose a 1.5-fold response, which translates to ≥7-fold signal over noise as the minimal threshold required to score an interaction as positive.
HiBiT-GPCR DNA constructs were diluted in 10 mM Tris pH 8 to a final concentration of 0.01 μg/μL, arrayed in 96-well plates and stored at −20 °C. For transfection, HEK293 cells were suspended in Opti-MEM (without phenol red) supplemented with 2% fetal bovine serum (Seradigm) and 100 units/mL penicillin–streptomycin (Gibco) at a final concentration of 220,000 cells/mL and dispensed into white 96-well plates at 90 μL/well. Subsequent transfections and screens were carried using an Agilent Bravo Automated Liquid Handling Platform. First, the 96-well HiBiT DNA arrays were diluted 25-fold in Opti-MEM (without serum or phenol red) to a final concentration of 0.0004 μg/μL and 20 μL of the diluted DNAs were transferred into new 96-well plates. Next, promoterless carrier DNA (1 μg/μL) was diluted 25-fold (0.04 μg/μL) and then dispensed into the diluted arrays at 20 μL/well. Following brief mixing, Viafect transfection reagent (Promega) diluted 16-fold into Opti-MEM was dispensed into the plates at 40 μL/well. After mixing by pipetting, plates were incubated for 10 min on the pipetting station deck. The DNA-transfection reagent complexes were then added to plates containing cells. To facilitate the screen, 10 μL of DNA-transfection reagent complexes were added in duplicates to the top 4 and bottom 4 rows, resulting in two identical 48-well arrays per plate. Plates with transfected cells were incubated for 18–20 h at 37 °C/5% CO2. A screen of each tracer across the entire library using two different concentrations requires duplicate plates of transfected cells. Depending on the number of tracers being screened, transfections can be scaled up using the same ratios. The next day, for each tracer, four 20× screening solutions in tracer dilution buffer (Promega) were prepared: two duplicates at final concentration of 20 μM and two duplicates at a final concentration of 2 μM. […] The four resulting solutions were diluted 4-fold in Opti-MEM without serum or phenol red to generate 5× solutions (5 µM and 0.5 µM tracer +/− 100 μM competing compound). To screen the library, a BioTek MultiFlo FX liquid dispenser was used to dispense 22.5 µL of tracer solution to the top 4 rows and 22.5 µL tracer + competing compound solution to the 4 bottom rows. Plates were briefly mixed on an orbital shaker and incubated for 1.5 h at room temperature. […] Plates were briefly mixed on an orbital shaker and incubated for 15 min to allow complementation.

SMILES | NanoBRET Fold Response (NPSR1, tracer 0.1μM) | NanoBRET Fold Response (NPSR1, tracer 1μM) | further results
CCOC(=O)c1cc(C#N)c(N2CCC(C(=O)NS(=O)(=O)Cc3ccccc3/C=C/C(=O)NCCNC(=O)CCc3ccc4n3[B-](F)(F)[N+]3=C(c5ccc[nH]5)C=CC3=C4)CC2)nc1C [AZD1283-1-NB590] | – | – | NanoBRET Fold Response (NPSR1, 0.1μM): 1.02; NanoBRET Fold Response (NPSR1, 1μM): 1.06
N#CN=C(NCCCOc1cccc(CN2CCCCC2)c1)NCCNC(=O)CCOCCOCCOCCOCCNC(=O)CCc1ccc2n1[B-](F)(F)[N+]1=C(c3ccc[nH]3)C=CC1=C2 [Aminopotentidine-2-NB590] | 0.99 | 1.01 | –
CN(C)CCC=C1c2ccccc2CCc2ccc(C(=O)NCCNC(=O)CCOCCOCCOCCOCCNC(=O)CCc3ccc4n3[B-](F)(F)[N+]3=C(c5ccc[nH]5)C=CC3=C4)cc21 [Amitriptyline-a-2-NB590] | – | – | NanoBRET Fold Response (tracer at 0.1μM): 1.01; NanoBRET Fold Response (tracer at 1μM): 0.99
CN(C)CCC=C1c2ccccc2CCc2ccc(C(=O)NCCNC(=O)CCOCCOCCOCCOCCNC(=O)CCc3ccc4n3[B-](F)(F)[N+]3=C(c5ccc[nH]5)C=CC3=C4)cc21 [Amitriptyline-b-2-NB590] | – | – | NanoBRET Fold Response (tracer at 0.1μM, listed as amitriptyline-b-2-NB590): 0.95; NanoBRET Fold Response (tracer at 1μM, listed as amitriptyline-b-2-NB590): 1.15
COc1ccc2c(n1)c(CCNC(C)=O)cn2CCNC(=O)CCc1ccc2n1[B-](F)(F)[N+]1=C(c3ccc[nH]3)C=CC1=C2 [Azamelatonin-1-NB590] | – | – | NanoBRET Fold Response (0.1μM tracer): 0.96; NanoBRET Fold Response (1μM tracer): 0.84
COc1ccc2[nH]c(-c3ccc(CNC(=O)CCOCCOCCOCCOCCNC(=O)CCc4ccc5n4[B-](F)(F)[N+]4=C(c6ccc[nH]6)C=CC4=C5)cc3)c(CCNC(C)=O)c2n1 [AzomelatoninICO9-2-NB590] | – | – | NanoBRET Fold Response (0.1μM tracer): 0.98; NanoBRET Fold Response (1μM tracer): 0.96
O=C(CCOCCOCCOCCOCCNC(=O)CCc1ccc2n1[B-](F)(F)[N+]1=C(c3ccc[nH]3)C=CC1=C2)NCCCN1CCN(C2=Nc3cc(Cl)ccc3Nc3ccccc32)CC1 [Clozapine-a-2-NB590] | – | – | NanoBRET Fold Response (NPSR1, 0.1μM tracer): 0.93; NanoBRET Fold Response (NPSR1, 1μM tracer): 1.15
CN1CCN(C2=Nc3cc(Cl)ccc3Nc3ccc(CNC(=O)CCOCCOCCOCCOCCNC(=O)CCc4ccc5n4[B-](F)(F)[N+]4=C(c6ccc[nH]6)C=CC4=C5)cc32)CC1 [Clozapine-b-2-NB590] | – | – | NanoBRET Fold Response (NPSR1, 0.1μM tracer): 1.05; NanoBRET Fold Response (NPSR1, 1μM tracer): 0.98
CN1CCN(C2=Nc3cc(Cl)ccc3N(CC(=O)NCCOCCOCCOCCOCCNC(=O)CCc3ccc4n3[B-](F)(F)[N+]3=C(c5ccc[nH]5)C=CC3=C4)c3ccccc32)CC1 [Clozapine-c-2-NB590] | – | – | NanoBRET Fold Response (NPSR1, 0.1μM tracer): 1.02; NanoBRET Fold Response (NPSR1, 1μM tracer): 1.02
O=C(CCOCCOCCOCCOCCNC(=O)CCc1ccc2n1[B-](F)(F)[N+]1=C(c3ccc[nH]3)C=CC1=C2)NCCCN1CCN(C2=Nc3ccccc3Oc3ccc(Cl)cc32)CC1 [Loxapine-a-2-NB590] | 0.98 | 1.04 | –
COc1ccccc1N1CCN(CCCCN2C(=O)c3ccc(CNC(=O)CCOCCOCCOCCOCCNC(=O)CCc4ccc5n4[B-](F)(F)[N+]4=C(c6ccc[nH]6)C=CC4=C5)cc3C2=O)CC1 [NAN-190-2-NB590] | 0.90 | 0.93 | –
COc1ccccc1N1CCN(CCCCN2C(=O)c3ccc(CNC(=O)CCOCCNC(=O)c4ccc(CNC(=O)CCc5ccc6n5[B-](F)(F)[N+]5=C(c7ccc[nH]7)C=CC5=C6)cc4)cc3C2=O)CC1 [NAN-190-3-NB590] | 1.10 | 1.17 | –
O=C(CCc1ccc2n1[B-](F)(F)[N+]1=C(c3ccc[nH]3)C=CC1=C2)NCc1ccc(C(=O)NCCOCCC(=O)N[C@@H]2CC[C@@]3(O)[C@H]4Cc5ccc(O)c6c5[C@@]3(CCN4CC3CC3)[C@H]2O6)cc1 [Naltrexone-3-NB590] | 1.12 | 0.92 | –
Cc1cc2c(s1)Nc1ccccc1N=C2N1CCN(CCCNC(=O)CCOCCOCCOCCOCCNC(=O)CCc2ccc3n2[B-](F)(F)[N+]2=C(c4ccc[nH]4)C=CC2=C3)CC1 [Olanzapine-a-2-NB590] | 1.01 | 1.17 | –
O=C(CCc1ccc2n1[B-](F)(F)[N+]1=C(c3ccc[nH]3)C=CC1=C2)NCc1ccc(C(=O)NCCOCCOCCNCC(O)COc2cccc3ccccc23)cc1 (stereo not drawn) [Propranolol-3-NB590] | – | – | NanoBRET Fold Response (NPSR1, 0.1μM): 1.00; NanoBRET Fold Response (NPSR1, 1μM): 0.98
O=C(CCc1ccc2n1[B-](F)(F)[N+]1=C(c3ccc[nH]3)C=CC1=C2)NCCOCCOCCNC(=O)OCCOCCN1CCN(C2=Nc3ccccc3Sc3ccccc32)CC1 [Quetiapine-a-2-NB590] | 0.87 | 0.90 | –
Cc1nc2n(c(=O)c1CCN1CCC(c3noc4cc(F)ccc34)CC1)CCCC2OC(=O)NCCOCCOCCOCCOCCNC(=O)CCc1ccc2n1[B-](F)(F)[N+]1=C(c3ccc[nH]3)C=CC1=C2 (stereo not drawn) [Risperidone-2-NB590] | 1.00 | 0.90 | –
CC(C)N(CC[C@H](c1ccccc1)c1cc(CCNC(=O)CCOCCOCCOCCOCCNC(=O)CCc2ccc3n2[B-](F)(F)[N+]2=C(c4ccc[nH]4)C=CC2=C3)ccc1O)C(C)C [Tolterodine-2-NB590] | – | 1.34 | –
CC(C)N(CC[C@H](c1ccccc1)c1cc(CCNC(=O)c2ccc(CNC(=O)CCc3ccc4n3[B-](F)(F)[N+]3=C(c5ccc[nH]5)C=CC3=C4)cc2)ccc1O)C(C)C [Tolterodine-BZ-NB590] | 1.12 | 0.99 | –
CCCn1c(=O)c2[nH]c(-c3ccc(OCC(=O)NCCNC(=O)CCOCCNC(=O)c4ccc(CNC(=O)CCc5ccc6n5[B-](F)(F)[N+]5=C(c7ccc[nH]7)C=CC5=C6)cc4)cc3)nc2n(CCC)c1=O [XAC-3-NB590] | 0.90 | 0.92 | –
